The test system of data set [1] is intracellular L. donovani amastigotes (strain Ld1S). Kind of data set: High content assay on intramacrophagic L. donovani amastigotes in primary mouse macrophages. The note with it: for SI (selectivity index): EC50 (BMDM) versus EC50 (L. donovani Am); for EC50: Leishmania donovani, BMDM, 72 h, read-out: EC50 (L. donovani Am). The data set is classed as cell-based, Leishmania donovani. On the procedure:
(§1) Bone marrow derived macrophages (BMDMs) at day 6 of differentiation were resuspended in complete medium supplemented with CSF-1 (25 ng/ml) and deposited in 384 well plates (culture-treated, flat-optically clear bottom, Cellcarrier plate, PerkinElmer). Five hours later purified Am were added.
(§2) One day after macrophage infection, Leish-Box compounds dissolved in DMSO were added for 3 days at 10 or 1 μM final concentration resulting in a 1% DMSO final concentration. Each compound was tested in quadruplicates. Controls included mock (no liquid added), vehicle control (DMSO), positive control (anti-leishmanial amphotericin B, AmB), and cytotoxicity control (cycloheximide, Cyclo).
(§3) The high content assay used to assess the anti-leishmanial activity against intramacrophagic L. donovani amastigotes corresponds to the L. amazonensis HCS protocol up to the drug incubation step. Then, BMDM cultures were fixed with 4% paraformaldehyde solution in PBS for 1 hour at room temperature, washed with PBS, blocked with 50 mM NH4Cl-PBS for 15 min, and saturated for 30 min with saponin-PBS (0.1 mg/ml) containing 5% normal goat serum. All washing steps were performed with saponin-PBS. Cells were incubated for 45 min with saponin-PBS with 0.25% gelatin and an immune serum obtained from a L. donovani infected hamster (dilution 1/1000), washed twice, and further incubated for 45 min with saponin-PBS containing 0.25% gelatin and 2 µg/ml conjugated AlexaFluor 488 goat anti hamster IgG (Jackson ImmunoReasearch). Finally, after additional washing, Hoechst 33342 (5 µg/ml) and HCS CellMask Blue stain (HCS, Invitrogen Molecular Probes, 2 µg/ml) were added for 30 min at room temperature, washed twice with PBS and stored at 4 °C until acquisition. For hit compounds EC50s were calculated using SigmaPlot software (four parameter logistic equation) following application of a range of concentrations (from 10 to 0.16 µM) performed in duplicates.
(§4) Images of macrophage cultures were acquired using the automatic Opera QEHS confocal imaging system (Perkin Elmer Technology). For the L. donovani HCA, a 40x water objective and two lasers (488 nm for immuno-stained parasites; 405 nm for Hoechst-stained parasite and macrophage nuclei, and HCS-stained macrophage cytoplasm) were used for acquiring 285 fields for the entire well or 30 fields per well in routine HCA conditions. For L. amazonensis HCA, a 10x air objective and three lasers (561 nm for mCherry-expressing parasites; 488 nm for LysoTracker-containing PVs; 405 nm for Hoechst-stained macrophage nuclei) were used to acquire images from entire wells (15 fields).
Images were transferred to the Columbus Conductor™ Database (Perkin Elmer Technologies) and analyzed using the integrated Image analysis building blocks. For L. donovani HCA, we developed a new script based on object segmentation subroutines detecting successively the macrophage nucleus, the macrophage cytoplasm, the parasites and their nuclei, with their associated features (number, size and object intensity). All methods used for segmentation are described in the Columbus Manuel. Analysis was simplified by only taking into account the number of macrophages and the number of amastigotes per macrophage, which was the common way to estimate the anti-leishmanial activity in screening campaigns. For the sake of clarity, both toxicity against host cells and activity against the parasites of tested compounds were normalized to DMSO-treated controls and expressed as percent of DMSO controls. The viability index is calculated by establishing a ratio of macrophage numbers between compound- and DMSO-treated cells, while the anti-leishmanial activity is represented by the number of amastigotes per macrophage. Compounds causing a 50% or higher reduction of macrophage density were considered toxic. […] For the L. amazonensis HCA, we applied the method we described previously. […]

Data set [2] relates to BMDM (bone marrow derived macrophages). Kind of data set: Host cell toxicity (macrophage number) in the L. donovani high content assay. It is filed as cell-based, mouse. The note with it: for EC50: Mus musculus, BMDM, 72 h, toxicity against macrophages, 3 days, concentrations from 10 to 0.16 µM. On the procedure:
Primary mouse macrophages were prepared as described. Briefly, bone marrow cells were recovered from BALB/c mice and were resuspended in complete DMEM medium (PAN Biotech) supplemented with 75 ng/ml of recombinant mouse CSF-1 (ImmunoTools). Cells were distributed in hydrophobic Petri dishes (Greiner 664161, 1,5 × 10^7 in 11 ml) and incubated at 37 °C in a 7.5% CO2 air atmosphere for 6 days (with mCSF-1 supplemented medium added at day 3).
as §1, §2, §3
Images were transferred to the Columbus Conductor™ Database (Perkin Elmer Technologies) and analyzed using the integrated Image analysis building blocks. For L. donovani HCA, we developed a new script based on object segmentation subroutines detecting successively the macrophage nucleus, the macrophage cytoplasm, the parasites and their nuclei, with their associated features (number, size and object intensity). All methods used for segmentation are described in the Columbus Manuel. Analysis was simplified by only taking into account the number of macrophages and the number of amastigotes per macrophage, which was the common way to estimate the anti-leishmanial activity in screening campaigns. For the sake of clarity, both toxicity against host cells and activity against the parasites of tested compounds were normalized to DMSO-treated controls and expressed as percent of DMSO controls. The viability index is calculated by establishing a ratio of macrophage numbers between compound- and DMSO-treated cells, while the anti-leishmanial activity is represented by the number of amastigotes per macrophage. Compounds causing a 50% or higher reduction of macrophage density were considered toxic. […] For the L. amazonensis HCA, we applied the method we described previously. Quantitative values obtained for host cell and parasite numbers were exported to Excel and SigmaPlot for further analysis and graphical representations.

Data set [3] deals with intracellular L. amazonensis amastigotes (strain LV79). Kind of data set: High content assay on intramacrophagic L. amazonensis amastigotes in primary mouse macrophages. The note with it: hit compounds of Figure 6. It is filed as cell-based, Leishmania amazonensis. On the procedure:
as §1, §2
The high content assay used to assess the anti-leishmanial activity against intramacrophagic amastigotes of L. amazonensis has been described elsewhere. Briefly, after 3 days of co-incubation with compounds, BMDM nuclei and parasitophorous vacuoles (PVs) were stained with Hoechst 33342 (Invitrogen Molecular Probes, 12 µM) and LysoTracker Green (Life Technologies, DND-26, 1 µM), respectively. Acquisition of images was performed on live cell cultures.
as §4

The subject of data set [4] is L. donovani promastigotes (Ld1S). Nature of the data set: Resazurin reduction viability assay on cultured L. donovani promastigotes. It is filed as cell-based. The note with it: Leishmania donovani, read-out: EC50 against L. donovani promastigotes. Here is the method:
Figure 4 Leish-Box screening results for cultured L. donovani promastigotes. A resazurin-based viability assay was used to assess anti-leishmanial activity of Leish-Box compounds against Ld1S promastigotes. Two days after compound addition to parasite cultures at logarithmic growth phase, resazurin was added for an additional 24 hours before reading the level of resofurin fluorescence using an Infinite™ M200 plate reader (Tecan™). […] The outer and inner circles represent respectively 80% and 50% threshold activity values.
Anti-leishmanial activity of compounds was evaluated using an adapted resazurin reduction assay[53] with cell-cycling promastigotes from logarithmic growth phase. Compounds were tested in quadruplicates at 20, 4 and 0.8 μM at 26 °C in 384-well plates. DMSO vehicle and AmB (1 μM) were used as controls. Two days later, resazurin was added (10 μL per well at 25 μg/mL) and fluorescence intensity was measured 24 h later using a Tecan Safire 2 reader (excitation 558 ± 4.5 nm; emission 585 ± 10 nm). Following background subtraction (complete parasite culture medium with resazurin in absence of parasites), data were expressed as percentages of growth compared to DMSO-treated controls (POC).
Background: Resazurin is reduced to fluorescent resorufin, in cell work by metabolically active cells.

Data on six compounds can be found in PMC6345745, “Discovery of novel hit compounds with broad activity against visceral and cutaneous Leishmania species by comparative phenotypic screening” (Scientific Reports, 2019).

The EC50 is the concentration at which the effect is half-maximal.

On to `COc1ccc(NS(=O)(=O)c2cc(NC(=O)c3ccc([N+](=O)[O-])s3)ccc2OC)cc1` [TCMDC-143163], for which, in data set [1], the “SI (selectivity index)” value is recorded as greater than 10 and the EC50 came out at 790 nM. Further, the EC50 in data set [2] was greater than 10000 nM. In addition, in data set [3], the “activity on L. amazonensis intramacrophagic amastigotes” value (from here on “activity”) is given as “active”.
Regarding `COc1ccc(Oc2ccc(C(C)N(C)c3ncc4c(N)nc(N)nc4n3)cc2)cc1` (stereo not shown) [TCMDC-143295], the “SI (selectivity index)” value in data set [1] is listed as greater than 10. Further, the EC50 in data set [1] is 480 nM; in data set [2] it was greater than 10000 nM; in data set [4], 80 nM. Further, in data set [3], the “activity” value is given as “active”.
Consider `C[C@@H]1[C@H](O)[C@@H](C)/C=C/C=C/C=C/C=C/C=C/C=C/C=C/[C@H](O[C@@H]2O[C@H](C)[C@@H](O)[C@H](N)[C@@H]2O)C[C@@H]2O[C@](O)(C[C@@H](O)C[C@@H](O)[C@H](O)CC[C@@H](O)C[C@@H](O)CC(=O)O[C@H]1C)C[C@H](O)[C@H]2C(=O)O` [AmB, amphotericin B, reference compound], for which the “amastigote survival compared to DMSO control” value in data set [1] (positive control, 3 days) is recorded as 0.8%. Besides, the “toxicity toward the host cell” value in data set [2] (BMDMs recovered after three days of treatment, normalized to mock) is listed as “some toxicity”.
Take `O=C(Nc1cccc(S(=O)(=O)Nc2ccc(Br)cc2)c1)c1ccc([N+](=O)[O-])s1` [TCMDC-143563]: in data set [1], the “SI (selectivity index)” value is on record as greater than 10 and the concentration giving a half-maximal response (EC50) came out at 590 nM. The half-maximal effective concentration (EC50) in data set [2] worked out at 6250 nM. Further, the “activity” value in data set [3] is reported as “active”.
On the same counts, the results for `O=C(Nc1ccc(S(=O)(=O)N2CCCC2)cc1)c1ccc([N+](=O)[O-])s1` [TCMDC-143169] are > 1,5, 6880 nM, greater than 10000 nM and “active”.
With `Cc1ccc(NC(=O)c2ccc([N+](=O)[O-])s2)cc1S(=O)(=O)N1CCOCC1` [TCMDC-143577], the EC50 in data set [1] amounted to 1250 nM; in data set [2], 5090 nM. For the same compound, the “activity” value in data set [3] is “active”.
